These are literature values, as cited in the CATMoS acute toxicity set (Mansouri et al. 2021).

In general, LD50 refers to the dose at which mortality reaches 50%.

Several values for one entry are separate records, joined by “and”; a condition that tells them apart may be missing. Identical values can stand only once.

A short description of the data set: rat acute oral toxicity. The settings on record: in vivo.
As for `O=C(c1ccccc1)N1CCN=C1Nc1c(Cl)cccc1Cl`, the median lethal dose (LD50) is 68.1 mg/kg.
On to `CCC(=O)c1ccc2c(c1)N(CCCN(C)C)c1ccccc1S2`, for which the LD50 was 500 mg/kg.
As to `CC(C)c1cccc(C(C)(C)O)c1`, the median lethal dose (LD50) is 6000 mg/kg.
Take `CCOC(=O)CCC(=O)CC1(O)C2(Cl)C3(Cl)C4(Cl)C(Cl)(Cl)C5(Cl)C3(Cl)C1(Cl)C5(Cl)C42Cl` (stereo not drawn): the LD50 is 240 mg/kg.
Turning to `O=C(Cc1c[nH]c2ccccc12)NN1C(=O)CSC1=S`, the LD50 was 432 mg/kg.
With `CCCCC(C)(C)O`, the LD50 was 820 mg/kg.
As for `CC(C)(C)c1cc([N+](=O)[O-])cc([N+](=O)[O-])c1O`, the 50% lethal dose (LD50) was 26 mg/kg.
Consider `CCCCC`, for which the 50% lethal dose (LD50) is 400 mg/kg.
With `O=C(NCNC(=O)NC1C(=O)NC(=O)N1CO)NC1C(=O)NC(=O)N1CO` (stereo not drawn), the 50% lethal dose (LD50) is 11300 mg/kg.
On to `COCCNC(=O)c1nc2c(N)nc(-c3ccccc3)nc2nc1NCCOC`, for which the 50% lethal dose (LD50) was 5010 mg/kg.
In the case of `O=c1ccc(O)n[nH]1`, the 50% lethal dose (LD50) was 3900 mg/kg.
Consider `CN(N=O)c1ccccc1`, for which the 50% lethal dose (LD50) is 225 mg/kg.
Turning to `O=C1O[C@@H]2[C@@H](O)[C@H](O)O[C@@H]2[C@H]1O`, the LD50 is 10700 mg/kg.
With `CCOC(=O)Nc1ccc2c(c1)N(C(=O)CCN1CCOCC1)c1ccccc1S2`, the 50% lethal dose (LD50) was 1000 mg/kg.
As to `O=C1NC(=O)C(=O)C(=O)N1`, the 50% lethal dose (LD50) is 5210 mg/kg.
For `OC(COc1ccccc1)COc1ccccc1`, the LD50 is 1450 mg/kg.
As to `CCN(CC)CCOc1ccccc1-n1c(C)ccc1-c1ccccc1`, the median lethal dose (LD50) is 700 mg/kg.
`CN1C(=O)CCc2cc(C(=O)CCN3CCN(c4ccccc4)CC3)ccc21`: the LD50 was 500 mg/kg.
On to `Cn1c([N+](=O)[O-])cnc1/C=C/c1ccnc(N)n1`, for which the 50% lethal dose (LD50) is 7600 mg/kg.
For the compound `ClCCC[Si](Cl)(Cl)Cl`, the LD50 was 200 mg/kg.
`C=CC(=O)NC(OC)C(=O)OC` (stereo not drawn): the median lethal dose (LD50) is 2090 mg/kg.
For the compound `CCOCC(C)O` (stereo not drawn), the LD50 is 4400 mg/kg.
For `Cc1ccc2ccc(=O)oc2c1`, the median lethal dose (LD50) is 3800 mg/kg.
As for `CCCOC(=O)CC`, the LD50 was 10300 mg/kg.
Turning to `COc1ccc2cc([C@H](C)C(=O)OCCN3CCN(Cc4ccccc4)CC3)ccc2c1`, the LD50 was 1100 mg/kg.
In the case of `CC(O)CN(C)C` (stereo not drawn), the 50% lethal dose (LD50) is 1740 mg/kg.
In the case of `COc1cc(C(=O)NC2CCCNC2)cc(OC)c1OC` (stereo not drawn), the LD50 is 2100 mg/kg.
In the case of `Oc1ccc(O)c2[nH]c(C(F)(F)F)nc12`, the 50% lethal dose (LD50) was 29 mg/kg.
Consider `O=c1[nH]ncc2ccccc12`, for which the median lethal dose (LD50) is 370 mg/kg.
With `OCC1OC(n2cnc3c(S)ncnc32)C(O)C1O` (stereo not drawn), the LD50 is 900 mg/kg.
As to `NC(=O)CCN1CCN(C2Cc3cc(Cl)ccc3Sc3cc(F)ccc32)CC1` (stereo not drawn), the median lethal dose (LD50) was 472 mg/kg and 490 mg/kg.
In the case of `CC(Cc1ccccc1)NCCn1cnc2c1c(=O)n(C)c(=O)n2C` (stereo not drawn), the LD50 was 100 mg/kg.
Take `CCOP(=S)(OCC)Oc1cc(C)n(CC)c(=O)c1`: the LD50 is 7070 mg/kg.
For `CCC(C)(C)c1ccc(OCCCCN)c(C(C)(C)CC)c1`, the LD50 was 800 mg/kg.
Consider `O=C(O)C(F)(F)C(F)(F)F`, for which the LD50 was 1770 mg/kg.
Turning to `CCOP(=O)(OCC)ON1C(=O)c2cccc3cccc(c23)C1=O`, the LD50 was 70 mg/kg.
For `O=C(OC1CCC(N2CCCCC2)CC1)C1CCCCC1` (stereo not drawn), the LD50 is 2500 mg/kg.
In the case of `Cc1cc(C(C#N)c2ccc(Cl)cc2)c(Cl)cc1NC(=O)c1cc(I)cc(I)c1O` (stereo not drawn), the LD50 is 262 mg/kg.
With `O=C(OCc1ccccc1)c1ccccc1O`, the LD50 was 2230 mg/kg.
On to `OCCN1CCN(CCCN2c3ccccc3Sc3cc(Cl)cnc32)CC1`, for which the LD50 is 657 mg/kg.
On to `Cc1[nH]c(=O)n(C(C)C)c(=O)c1Br`, for which the 50% lethal dose (LD50) is 3400 mg/kg.
Turning to `CC1Oc2ccccc2CC1N(C)C` (stereo not drawn), the median lethal dose (LD50) was 812 mg/kg.
Turning to `COc1ccccc1OC(=O)[C@H](C)c1ccc(CC(C)C)cc1`, the median lethal dose (LD50) was 2060 mg/kg.
Regarding `c1ccc2[nH]c(SN3CCCCC3)nc2c1`, the LD50 is 853 mg/kg.
Regarding `CCCCCCCCCc1ccc(OCCO)cc1`, the LD50 is 2100 mg/kg.
Consider `FC(F)(F)c1cccc(C2CNCCO2)c1` (stereo not drawn), for which the LD50 is 271 mg/kg.
With `Cc1ccc(N=NN(C)C)cc1`, the LD50 is 395 mg/kg.
Turning to `CCOc1ccc2c(c1)C(C)=CC(C)(C)N2`, the LD50 was 3580 mg/kg.
